Data on 3 compounds can be found in patent US12077503B2, “Substituted cyclic amides and their use as herbicides” (FMC CORPORATION, priority 2015, dated 2024).

The structures appear in SMILES notation. Where two headings read alike, the source gives them in different places.

Format in all cases: in vivo
For assay [1], the system named is Kochia (Kochia scoparia). Put plainly: Test A preemergence. The note with it: Bassia scoparia, pre-emergence, 240 h; for pest or weed control at 125 g/ha: 125 g ai/ha, 0 to 100 scale where 0 is no effect and 100 is complete control; for pest or weed control at 500 g/ha: 500 g ai/ha. The essentials: (§1)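 Each rating is a visual injury score from 0 to 100 given about 10 d after treatment, judged against untreated controls kept alongside in the greenhouse. In loam soil–sand blend, seeds got a preemergence directed soil spray, while postemergence plants were 2 to 10 cm tall at spraying.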

In assay [2] the test system is barnyardgrass (Echinochloa crus-galli). Put plainly: Test A preemergence. The note with it: Echinochloa crus-galli, pre-emergence, 240 h; for pest or weed control at 125 g/ha: 125 g ai/ha, 0 to 100 scale where 0 is no effect and 100 is complete control; for pest or weed control at 500 g/ha: 500 g ai/ha. The essentials:
as §1

Assay [3] has as its system giant foxtail (Setaria faberii). Put plainly: Test A preemergence. To be noted: Setaria faberi, pre-emergence, 240 h; for pest or weed control at 125 g/ha: 125 g ai/ha, 0 to 100 scale where 0 is no effect and 100 is complete control; for pest or weed control at 500 g/ha: 500 g ai/ha. A digest of the protocol: as §1
For assay [4], the system named is pigweed (Amaranthus retroflexus). Put plainly: Test A preemergence. The note with it: Amaranthus retroflexus, pre-emergence, 240 h; for pest or weed control at 125 g/ha: 125 g ai/ha, 0 to 100 scale where 0 is no effect and 100 is complete control; for pest or weed control at 500 g/ha: 500 g ai/ha.
The subject of assay [5] is ragweed (common ragweed, Ambrosia elatior). Put plainly: Test A preemergence. The note with it: Ambrosia artemisiifolia, pre-emergence, 240 h; for pest or weed control at 125 g/ha: 125 g ai/ha, 0 to 100 scale where 0 is no effect and 100 is complete control; for pest or weed control at 500 g/ha: 500 g ai/ha. A digest of the protocol:
as §1

The test system of assay [6] is ryegrass, Italian (Italian ryegrass, Lolium multiflorum). Put plainly: Test A preemergence. The note with it: Lolium multiflorum, pre-emergence, 240 h; for pest or weed control at 125 g/ha: 125 g ai/ha, 0 to 100 scale where 0 is no effect and 100 is complete control; for pest or weed control at 500 g/ha: 500 g ai/ha. A digest of the protocol: as §1
For assay [7], the system named is Galium (catchweed bedstraw, Galium aparine). Nature of the assay: Test A postemergence. To be noted: Galium, post-emergence, 240 h, 125 g ai/ha. The essentials: as §1
Assay [8] deals with barnyardgrass (Echinochloa crus-galli). Nature of the assay: Test A postemergence. To be noted: Echinochloa crus-galli, post-emergence, 240 h, 125 g ai/ha. A digest of the protocol:
as §1

The test system of assay [9] is blackgrass (Alopecurus myosuroides). Put plainly: Test A postemergence. The note with it: Alopecurus myosuroides, post-emergence, 240 h, 125 g ai/ha. The essentials:
as §1

Assay [10] deals with corn (Zea mays). Put plainly: Test A postemergence. The note with it: Zea mays, post-emergence, 240 h, 125 g ai/ha; for plant injury at 125 g/ha: postemergence, visual injury rating after approximately 10 d, read-out: Corn plant response rating (0 to 100 scale, 0 no effect, 100 complete control). A digest of the protocol:
as §1

In assay [11] the test system is giant foxtail (Setaria faberii). Nature of the assay: Test A postemergence. The note with it: Setaria faberi, post-emergence, 240 h, 125 g ai/ha. The essentials: as §1
The test system of assay [12] is pigweed (Amaranthus retroflexus). Nature of the assay: Test A postemergence. The note with it: Amaranthus retroflexus, post-emergence, 240 h, 125 g ai/ha. The essentials:
as §1

The test system of assay [13] is ragweed (common ragweed, Ambrosia elatior). Nature of the assay: Test A postemergence. The note with it: Ambrosia artemisiifolia, post-emergence, 240 h, 125 g ai/ha. The essentials: as §1
Assay [14] relates to ryegrass, Italian (Italian ryegrass, Lolium multiflorum). Put plainly: Test A postemergence. The note with it: Lolium multiflorum, post-emergence, 240 h, 125 g ai/ha. A digest of the protocol:
as §1

The test system of assay [15] is wheat (Triticum aestivum). Put plainly: Test A postemergence. To be noted: Triticum aestivum, post-emergence, 240 h, 125 g ai/ha. The essentials: as §1
Setting [16] is: preemergence, read-out: Kochia plant response rating.
Setting [17] is: Preemergence, visual injury vs untreated controls after approximately 10 d, read-out: Kochia plant response rating (0 to 100 scale where 0 is no effect and 100 is complete control).
Where [18] appears, read: preemergence, read-out: Barnyardgrass plant response rating.
Setting [19] is: Preemergence, visual injury vs untreated controls after approximately 10 d, read-out: Barnyardgrass plant response rating (0 to 100 scale where 0 is no effect and 100 is complete control).
[20] abbreviates: preemergence, read-out: Foxtail, Giant plant response rating.
Where [21] appears, read: Preemergence, visual injury vs untreated controls after approximately 10 d, read-out: Foxtail, Giant plant response rating (0 to 100 scale where 0 is no effect and 100 is complete control).
Where [22] appears, read: preemergence, read-out: Pigweed plant response rating.
Where [23] appears, read: Preemergence, visual injury vs untreated controls after approximately 10 d, read-out: Pigweed plant response rating (0 to 100 scale where 0 is no effect and 100 is complete control).
Where [24] appears, read: preemergence, read-out: Ragweed plant response rating.
Setting [25] is: Preemergence, visual injury vs untreated controls after approximately 10 d, read-out: Ragweed plant response rating (0 to 100 scale where 0 is no effect and 100 is complete control).
The mark [26] stands for this setting: preemergence, read-out: Ryegrass, Italian plant response rating.
Setting [27] is: Preemergence, visual injury vs untreated controls after approximately 10 d, read-out: Ryegrass, Italian plant response rating (0 to 100 scale where 0 is no effect and 100 is complete control).
[28] abbreviates: postemergence, visual injury rating after approximately 10 d, read-out: Galium plant response rating (0 to 100 scale, 0 no effect, 100 complete control).
[29] abbreviates: postemergence, visual injury rating after approximately 10 d, read-out: Barnyardgrass plant response rating (0 to 100 scale, 0 no effect, 100 complete control).
Where [30] appears, read: postemergence, visual injury rating after approximately 10 d, read-out: Blackgrass plant response rating (0 to 100 scale, 0 no effect, 100 complete control).
[31] abbreviates: postemergence, visual injury rating after approximately 10 d, read-out: Foxtail, Giant plant response rating (0 to 100 scale, 0 no effect, 100 complete control).
The mark [32] stands for this setting: postemergence, visual injury rating after approximately 10 d, read-out: Pigweed plant response rating (0 to 100 scale, 0 no effect, 100 complete control).
Setting [33] is: postemergence, visual injury rating after approximately 10 d, read-out: Ragweed plant response rating (0 to 100 scale, 0 no effect, 100 complete control).
Where [34] appears, read: postemergence, visual injury rating after approximately 10 d, read-out: Ryegrass, Italian plant response rating (0 to 100 scale, 0 no effect, 100 complete control).
The mark [35] stands for this setting: postemergence, visual injury rating after approximately 10 d, read-out: Wheat plant response rating (0 to 100 scale, 0 no effect, 100 complete control).

Take `CCOc1ccc([C@H]2CNC(=O)[C@@H]2C(=O)Nc2ccc(F)cc2F)cc1` [Compound 908]: the pest or weed control at 125 g/ha was 0% in [1] (setting [16]); 0% in [2] (setting [18]); 30% in assay [3] (setting [20]); 0% in [4] (setting [22]); 0% in [5] (setting [24]); 0% in assay [6] (setting [26]). Also, the pest or weed control at 125 g/ha in assay [7] (setting [28]) came out at 0%; in [8] (setting [29]), 20%; in assay [9] (setting [30]), 0%; in assay [11] (setting [31]), 30%; in assay [12] (setting [32]), 0%; in assay [13] (setting [33]), 0%. For the same compound, the pest or weed control at 125 g/ha in assay [14] (setting [34]) amounted to 0%. Moreover, the pest or weed control at 500 g/ha turned out to be 0% in assay [1] (setting [17]); 50% in [2] (setting [19]); 80% in assay [3] (setting [21]); 0% in assay [4] (setting [23]); 0% in [5] (setting [25]); 0% in assay [6] (setting [27]). Also, the plant injury at 125 g/ha in [10] and in assay [15] (setting [35]) was 0% in each case.

`Cc1cc([C@H]2CN(C)C(=O)[C@@H]2C(=O)Nc2ccccc2F)ccc1Cl` [Compound 928]: the pest or weed control at 125 g/ha is 80% in assay [1] (setting [16]); 90% in assay [2] (setting [18]); 90% in assay [3] (setting [20]); 0% in [4] (setting [22]); 0% in [5] (setting [24]); 40% in assay [6] (setting [26]). The pest or weed control at 125 g/ha came to 50% in assay [7] (Postemergence, visual injury after approximately 10 d, 0 to 100 scale where 0 is no effect and 100 is complete control, read-out: Plant response rating, Galium); 90% in assay [8] (Postemergence, visual injury after approximately 10 d, 0 to 100 scale where 0 is no effect and 100 is complete control, read-out: Plant response rating, Barnyardgrass); 30% in [9] (Postemergence, visual injury after approximately 10 d, 0 to 100 scale where 0 is no effect and 100 is complete control, read-out: Plant response rating, Blackgrass); 90% in [11] (Postemergence, visual injury after approximately 10 d, 0 to 100 scale where 0 is no effect and 100 is complete control, read-out: Plant response rating, Foxtail, Giant); 20% in assay [12] (Postemergence, visual injury after approximately 10 d, 0 to 100 scale where 0 is no effect and 100 is complete control, read-out: Plant response rating, Pigweed); 0% in [13] (Postemergence, visual injury after approximately 10 d, 0 to 100 scale where 0 is no effect and 100 is complete control, read-out: Plant response rating, Ragweed). Also, the pest or weed control at 125 g/ha in [14] (Postemergence, visual injury after approximately 10 d, 0 to 100 scale where 0 is no effect and 100 is complete control, read-out: Plant response rating, Ryegrass, Italian) was 50%. Moreover, the pest or weed control at 500 g/ha in assay [1] (preemergence, visual injury rating about 10 d after treatment, 0 to 100 scale (0 no effect, 100 complete control), read-out: Kochia plant response rating) turned out to be 80%; in [2] (preemergence, visual injury rating about 10 d after treatment, 0 to 100 scale (0 no effect, 100 complete control), read-out: Barnyardgrass plant response rating) it was 90%; in [3] (preemergence, visual injury rating about 10 d after treatment, 0 to 100 scale (0 no effect, 100 complete control), read-out: Foxtail, Giant plant response rating) it was 90%; in [4] (preemergence, visual injury rating about 10 d after treatment, 0 to 100 scale (0 no effect, 100 complete control), read-out: Pigweed plant response rating), 20%; in assay [5] (preemergence, visual injury rating about 10 d after treatment, 0 to 100 scale (0 no effect, 100 complete control), read-out: Ragweed plant response rating), 0%; in assay [6] (preemergence, visual injury rating about 10 d after treatment, 0 to 100 scale (0 no effect, 100 complete control), read-out: Ryegrass, Italian plant response rating) it was 70%. The compound also yielded a Corn plant response rating (crop injury, 0 = no effect, 100 = complete kill) at 125 g/ha in [10] (Postemergence, visual injury after approximately 10 d, 0 to 100 scale where 0 is no effect and 100 is complete control) of 40%. For the same compound, the plant injury at 125 g/ha in [15] (Postemergence, visual injury after approximately 10 d, 0 to 100 scale where 0 is no effect and 100 is complete control, read-out: Plant response rating, Wheat) was 40%.

Regarding `CN1C[C@H](c2cccc(C3CC3)c2)[C@@H](C(=O)Nc2ccc(F)cc2F)C1=O` [Compound 818], the pest or weed control at 125 g/ha is 70% in assay [1] (setting [16]); 90% in assay [2] (setting [18]); 90% in [3] (setting [20]); 20% in assay [4] (setting [22]); 0% in assay [5] (setting [24]); 60% in assay [6] (setting [26]). The pest or weed control at 125 g/ha was determined as 50% in assay [7] (setting [28]); 90% in [8] (setting [29]); 30% in assay [9] (setting [30]); 90% in assay [11] (setting [31]); 20% in assay [12] (setting [32]); 0% in assay [13] (setting [33]). In addition, in [14] (setting [34]), the pest or weed control at 125 g/ha was determined as 40%. In addition, the pest or weed control at 500 g/ha in assay [1] (setting [17]) is 80%; in assay [2] (setting [19]), 100%; in assay [3] (setting [21]) it was 100%; in assay [4] (setting [23]), 60%; in assay [5] (setting [25]) it was 0%; in assay [6] (setting [27]), 90%. Moreover, the plant injury at 125 g/ha in assay [10] was determined as 40%; in [15] (setting [35]), 0%.
